Measured values: paper PMC10557102 (Pharmacology Research & Perspectives, 2023)
Like-named read-outs stand apart in the source and are kept apart here.

Key:
[1] = test system: human OX1R; conditions: OX1R vs OX2R; cited from earlier work
[2] = target: T1, CYP3A4 (Homo sapiens, UniProt P08684); experiment: Covalent binding; type: in vitro ADME
[3] = target: CYP2D6 (Homo sapiens, UniProt P10635); experiment: Time-dependent; type: in vitro ADME; conditions: 30 min pre‐incubation with/without NADPH; dextromethorphan N‐demethylation
[4] = test system: healthy subjects; experiment: Safety and tolerability in the clinical study
[5] = target: T1, CYP3A4; experiment: Time-dependent; type: in vitro ADME; conditions: for IC50 shift: 30 min pre‐incubation with/without NADPH
[6] = target: T1, CYP3A4; experiment: Competitive; type: in vitro ADME
[7] = target: T2, CYP2C8 (Homo sapiens, UniProt P10632); experiment: Time-dependent; type: in vitro ADME; conditions: 30 min pre‐incubation with/without NADPH; paclitaxel 6α‐hydroxylation
T2 sequence (P10632 1-490): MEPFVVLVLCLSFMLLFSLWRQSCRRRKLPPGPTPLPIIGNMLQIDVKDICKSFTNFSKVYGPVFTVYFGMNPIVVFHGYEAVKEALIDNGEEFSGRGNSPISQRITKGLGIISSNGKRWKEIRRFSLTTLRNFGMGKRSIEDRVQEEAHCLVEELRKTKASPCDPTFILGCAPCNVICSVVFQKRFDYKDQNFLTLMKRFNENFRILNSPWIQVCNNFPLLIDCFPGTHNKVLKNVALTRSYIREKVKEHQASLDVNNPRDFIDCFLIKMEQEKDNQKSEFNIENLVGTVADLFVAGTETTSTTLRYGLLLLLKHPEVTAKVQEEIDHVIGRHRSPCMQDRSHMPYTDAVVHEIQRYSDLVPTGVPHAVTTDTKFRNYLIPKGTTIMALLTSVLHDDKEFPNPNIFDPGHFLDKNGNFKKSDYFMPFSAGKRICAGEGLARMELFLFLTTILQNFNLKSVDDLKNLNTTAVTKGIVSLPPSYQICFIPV

[8] = target: T1, CYP3A4; conditions: cited from earlier work
[9] = Plasma pharmacokinetics of nivasorexant 100 mg b.i.d. in healthy subjects; conditions: for unbound peak concentration: corrected for molecular weight and f u,p 0.01
[10] = target: T1, CYP3A4; conditions: in man; cited from earlier work
[11] = target: T3, CYP2C19 (Homo sapiens, UniProt P33261)
[12] = target: T4, CYP1A2 (Homo sapiens, UniProt P05177); experiment: Competitive; type: in vitro ADME
T4 sequence (P05177 1-516): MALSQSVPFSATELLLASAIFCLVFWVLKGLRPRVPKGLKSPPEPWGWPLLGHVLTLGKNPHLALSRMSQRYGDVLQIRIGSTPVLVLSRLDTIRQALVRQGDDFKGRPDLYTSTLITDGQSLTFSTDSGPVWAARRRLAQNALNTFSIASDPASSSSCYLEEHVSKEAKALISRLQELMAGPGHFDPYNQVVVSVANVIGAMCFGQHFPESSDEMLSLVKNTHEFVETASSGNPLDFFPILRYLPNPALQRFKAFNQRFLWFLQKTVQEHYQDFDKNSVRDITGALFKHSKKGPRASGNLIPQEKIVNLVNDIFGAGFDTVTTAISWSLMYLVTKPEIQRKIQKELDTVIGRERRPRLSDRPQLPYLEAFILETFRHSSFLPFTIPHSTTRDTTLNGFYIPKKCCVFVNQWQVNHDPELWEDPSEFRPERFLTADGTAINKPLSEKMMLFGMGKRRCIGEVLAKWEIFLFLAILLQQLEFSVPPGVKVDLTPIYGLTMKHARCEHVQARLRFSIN

[13] = target: T5, CYP2B6 (Homo sapiens, UniProt P20813); experiment: Competitive; type: in vitro ADME
T5 sequence (P20813 1-491): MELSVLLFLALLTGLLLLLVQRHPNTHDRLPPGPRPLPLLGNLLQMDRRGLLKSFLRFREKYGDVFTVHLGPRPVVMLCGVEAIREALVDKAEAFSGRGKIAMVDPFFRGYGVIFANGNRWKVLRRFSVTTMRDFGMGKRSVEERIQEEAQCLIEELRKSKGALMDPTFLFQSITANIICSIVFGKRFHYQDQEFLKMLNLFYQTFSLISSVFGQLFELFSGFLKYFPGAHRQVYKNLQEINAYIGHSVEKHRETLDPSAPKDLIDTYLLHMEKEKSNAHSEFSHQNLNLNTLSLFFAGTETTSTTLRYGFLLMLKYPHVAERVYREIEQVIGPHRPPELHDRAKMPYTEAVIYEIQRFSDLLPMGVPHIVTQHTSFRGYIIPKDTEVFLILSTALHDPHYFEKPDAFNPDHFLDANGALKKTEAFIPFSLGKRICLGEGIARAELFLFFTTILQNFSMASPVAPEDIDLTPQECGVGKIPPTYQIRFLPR

[14] = target: CYP2C9 (Homo sapiens, UniProt P11712); experiment: Competitive; type: in vitro ADME
[15] = target: T3, CYP2C19; experiment: biochemical; type: in vitro ADME
[16] = target: T3, CYP2C19; experiment: Covalent binding; type: in vitro ADME; conditions: data not shown

T3 sequence (P33261 whole entry): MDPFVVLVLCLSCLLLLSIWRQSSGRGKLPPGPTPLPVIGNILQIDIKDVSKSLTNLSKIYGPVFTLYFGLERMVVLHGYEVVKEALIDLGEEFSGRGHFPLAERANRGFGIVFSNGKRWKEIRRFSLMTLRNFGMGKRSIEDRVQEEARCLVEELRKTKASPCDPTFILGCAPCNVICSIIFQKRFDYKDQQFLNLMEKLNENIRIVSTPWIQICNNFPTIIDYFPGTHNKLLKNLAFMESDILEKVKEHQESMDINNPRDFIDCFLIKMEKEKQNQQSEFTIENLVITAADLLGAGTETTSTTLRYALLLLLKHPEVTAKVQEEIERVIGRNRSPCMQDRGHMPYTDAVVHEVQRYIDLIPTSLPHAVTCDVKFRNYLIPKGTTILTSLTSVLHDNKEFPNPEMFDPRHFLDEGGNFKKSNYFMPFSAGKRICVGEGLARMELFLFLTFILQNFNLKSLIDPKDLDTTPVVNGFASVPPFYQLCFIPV
T1 sequence (P08684 whole entry): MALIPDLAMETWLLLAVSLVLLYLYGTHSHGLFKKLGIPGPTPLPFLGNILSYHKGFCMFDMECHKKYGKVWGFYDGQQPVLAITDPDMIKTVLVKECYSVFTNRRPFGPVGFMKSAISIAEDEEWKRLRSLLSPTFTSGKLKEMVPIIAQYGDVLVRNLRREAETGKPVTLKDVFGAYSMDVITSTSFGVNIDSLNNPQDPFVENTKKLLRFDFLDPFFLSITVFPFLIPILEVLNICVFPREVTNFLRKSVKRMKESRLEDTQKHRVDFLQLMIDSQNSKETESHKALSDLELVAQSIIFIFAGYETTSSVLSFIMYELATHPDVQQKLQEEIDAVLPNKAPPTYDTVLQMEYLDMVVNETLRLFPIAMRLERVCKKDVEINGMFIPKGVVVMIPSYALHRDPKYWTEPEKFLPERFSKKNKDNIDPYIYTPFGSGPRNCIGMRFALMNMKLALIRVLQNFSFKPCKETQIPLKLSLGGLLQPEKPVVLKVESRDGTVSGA
Sequence of CYP2D6 (P10635 whole entry): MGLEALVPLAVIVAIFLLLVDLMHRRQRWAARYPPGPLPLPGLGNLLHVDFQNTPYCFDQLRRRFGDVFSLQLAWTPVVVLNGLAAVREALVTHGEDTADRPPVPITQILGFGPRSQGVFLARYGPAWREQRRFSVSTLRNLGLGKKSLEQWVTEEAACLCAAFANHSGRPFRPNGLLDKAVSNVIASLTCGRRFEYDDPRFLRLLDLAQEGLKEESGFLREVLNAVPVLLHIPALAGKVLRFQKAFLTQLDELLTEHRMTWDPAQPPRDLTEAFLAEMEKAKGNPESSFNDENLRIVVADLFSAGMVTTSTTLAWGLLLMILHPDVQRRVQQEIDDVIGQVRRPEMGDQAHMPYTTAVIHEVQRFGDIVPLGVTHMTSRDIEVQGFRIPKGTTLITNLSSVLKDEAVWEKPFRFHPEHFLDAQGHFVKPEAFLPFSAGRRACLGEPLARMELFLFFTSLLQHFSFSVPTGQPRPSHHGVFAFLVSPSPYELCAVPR
Sequence of CYP2C9 (P11712 whole entry): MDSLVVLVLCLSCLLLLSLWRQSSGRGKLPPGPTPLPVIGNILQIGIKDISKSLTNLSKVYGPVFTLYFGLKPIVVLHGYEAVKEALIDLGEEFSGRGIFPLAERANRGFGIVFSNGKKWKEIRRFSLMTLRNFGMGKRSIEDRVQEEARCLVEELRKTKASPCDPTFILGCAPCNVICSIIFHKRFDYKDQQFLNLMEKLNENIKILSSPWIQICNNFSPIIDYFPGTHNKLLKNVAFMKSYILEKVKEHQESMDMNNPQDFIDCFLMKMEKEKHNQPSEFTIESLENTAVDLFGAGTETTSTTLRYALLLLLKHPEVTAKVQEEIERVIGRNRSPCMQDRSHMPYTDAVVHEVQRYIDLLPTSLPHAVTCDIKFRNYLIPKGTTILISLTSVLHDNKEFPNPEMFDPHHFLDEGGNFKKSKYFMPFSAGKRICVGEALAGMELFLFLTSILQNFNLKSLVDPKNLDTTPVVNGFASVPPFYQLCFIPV

Cc1ccc(C(=O)N2CCOC[C@H]2Cc2cccc(-n3nccn3)c2)c(-n2nccn2)c1 [nivasorexant]
higher potency at human OX1R than at human OX2R [1]: approximately 60 fold
covalent binding (in words) [2]: covalent binding
IC50 shift [3]: no effect and none
safety and tolerability (in words) ([4]; Day 1 to Day 15, healthy subjects): safe and well tolerated
somnolence, subjects (%) ([4]; Treatment B: cocktail + initial 100 mg nivasorexant, Day 8): 1 (4.5%) subjects (%)
somnolence, subjects (%) ([4]; Treatment C: nivasorexant 100 mg b.i.d. alone, Day 9–14): 2 (9.1%) subjects (%)
somnolence, subjects (%) ([4]; Treatment D: cocktail + nivasorexant at steady state, Day 15): 5 (23.8%) subjects (%)
IC50 shift ([5]; midazolam 1′‐hydroxylation): none
IC50 shift ([5]; testosterone 6β‐hydroxylation): none
effect of pre‐incubation on CYP3A4 activity (in words, probe not stated) ([5]; time‐dependent inhibition assay): no pre‐incubation effect
IC50 [6]: 44 µM
IC50 ([6]; IC50 (range over both probe substrates), midazolam and testosterone as probes): 19 to 44 µM
IC50 ([6]; IC50, human liver microsomes, midazolam 1′‐hydroxylation): 19 µM
IC50 shift [7]: no effect and none
time to steady‐state conditions ([8]; 200 mg b.i.d. nivasorexant): 4 to 5 days
CYP3A4 inhibitor classification ([8]; after b.i.d. administration of 200 mg for 10 days): moderate (≥ 2‐ to <5‐fold)
time to steady‐state trough concentrations ([9]; 100 mg b.i.d.): 3 to 4 days
accumulation index (AIX) ([9]; AUCτ Day 15 / AUCτ Day 8, 8 days of 100 mg b.i.d.): 1.8
unbound peak concentration ([9]; Day 8): 16 nM
unbound peak concentration ([9]; Day 15): 29 nM
AUC ([9]; both, human, plasma, oral, AUCτ, Trt D, Day 15, repeated 100 mg b.i.d., geometric mean (95% CI)): 8560 ng·h/mL
Cmax ([9]; both, human, plasma, oral, C max, Trt D, Day 15, repeated 100 mg b.i.d., steady state, geometric mean (95% CI)): 1250 ng/mL
t max ([9]; both, human, plasma, oral, t max, Trt D, Day 15, repeated 100 mg b.i.d., median (range)): 2 h
extent of microsomal metabolism dependent on CYP3A4 [10]: approximately 90%
CYP2C19 inhibitor classification according to regulatory guidance ([11]; after 1 day of 100 mg b.i.d.): moderate (≥ 2‐ to <5‐fold)
CYP2C19 inhibitor classification according to regulatory guidance ([11]; after 8 days / repeated 100 mg b.i.d., steady state): strong (≥5‐fold)
IC50 [12]: > 100 µM
IC50 [13]: > 100 µM
IC50 [14]: 8.6 µM
Ki [14]: 5 µM
IC50 [15]: 1.6 µM
covalent binding (in words) [16]: covalently binds
